Legend:
[1] = test system: TNFα-induced gene expression in Human Microvascular Endothelial Cells (HMEC); test: Microarray study of TNFα-induced gene expression in HMEC; assay type: cell-based
Procedure: Effects of BDMC/Curcumin/Curcuminoids were Studied in TNFα-Induced Gene Expression in Human Microvascular Endothelial Cells (HMEC):
Micro array analysis was carried out to identify the sets of gene differentially expressed in TNFα treated endothelial cells pretreated/not pretreated with demethylated curcuminoids (BMDC, curcumin)/with curcuminoids. Data acquisition and image processing were performed using GCOS (Gene Chip Operating Software, Affymetrix). Genes that were >2.0 fold up regulated in TNFα-treated group compared to TNFα untreated control group were selected and subjected to hierarchical clustering. […] These sub-clusters were subjected to further functional analysis using DAVID (Database for Annotation, Visualization and Integrated Discovery NIAID, NIH) (FIG. 10, 11). Major known pathways (KEGG, Kyoto Encyclopedia of Genes and Genomes) identified in each of the cluster have been illustrated as pathway maps marking the candidate genes.
GeneChip™ screening of TNFα-inducible transcriptome of HMEC identified 1195 probe sets that were induced by a magnitude of two-fold or higher.

[2] = Particle size distribution study (Malvern particle size analyzer, laser diffraction); assay type: physicochemical; details: nanoemulsified vs unformulated
Procedure: This study proves that a curcumin molecule which is originally 374 nm in the unformulated form is emulsified into 8-11 nm sized particles through a unique process, which has been indicated for this enhanced transport and efficacy of curcumin through the formulation. The study was conducted using Malvern particle size analyzer. The map of scattering intensity versus angle is the primary source of information used to calculate the particle size. The scattering of particles is accurately predicted by the Mie scattering model allowing accurate sizing across the widest possible dynamic range. During the laser diffraction measurement, particles are passed through a focused laser beam. These particles scatter light at an angle that is inversely proportional to their size. The angular intensity of the scattered light is then measured by a series of photosensitive detectors. The advantage of this study is that there is no sample preparation involved. […] Additional peaks can be observed which is contributed by the high molecular weight excipients used to prepare the formulation.

[3] = test system: psoriasis; details: Heng et al., Br J Dermatol 2000; cited from earlier work
[4] = test system: phosphorylase kinase; details: Reddy & Aggarwal, FEBS Lett 1994; cited from earlier work

SMILES	effect on TNFα ([1]; HMEC challenged with TNFα)	number of TNFα inducible genes sensitive to the substance ([1]; microvascular endothelial cells challenged with TNFα, 1195 probe sets induced two-fold or higher) [genes]	particle size [2] [nm]	particle size ([2]; listed as unformulated curcumin 98%) [nm]	resolution of psoriasis [3]	phosphorylase kinase inhibition [4]
O=C(/C=C/c1ccc(O)c(O)c1)CC(=O)/C=C/c1ccc(O)c(O)c1 [bis-O-demethyl curcumin, Bis-O-Demethyl curcumin]	antagonizing effects on TNFα	1065	–	–	–	–
COc1cc(/C=C/C(=O)CC(=O)/C=C/c2ccc(O)c(OC)c2)ccc1O [curcumin]	–	–	374	373	leads to resolution of psoriasis	selective phosphorylase kinase inhibitor
